ChEMBL document CHEMBL6096689, “Structure-Guided Development of ClpP Agonists with Potent Therapeutic Activities against Staphylococcus aureus Infection” (J Med Chem, 2025)
Converted amounts (≈) assume the structure as drawn. The source made the active and inactive calls. No cut-off for these calls is given here.

Tests used:
[1] = Therapeutic index, ratio of IC50 for HK-2 cells to MIC for Staphylococcus aureus Newman; assay type: toxicity, cell-based; settings: human, read-out: TI
[2] = target: T1, ATP-dependent Clp protease proteolytic subunit (Staphylococcus aureus (strain NCTC 8325), UniProt Q2G036); experiment: Agonist activity at Staphylococcus aureus ClpP extracted from Escherichia coli BL21 (DE3) cells using alpha-casein as substrate assessed as substrate hydrolysis preincubated for 15 mins followed by substrate addition and measured after 2 hrs by SDS-PAGE analysis
T1 sequence (Q2G036 whole entry): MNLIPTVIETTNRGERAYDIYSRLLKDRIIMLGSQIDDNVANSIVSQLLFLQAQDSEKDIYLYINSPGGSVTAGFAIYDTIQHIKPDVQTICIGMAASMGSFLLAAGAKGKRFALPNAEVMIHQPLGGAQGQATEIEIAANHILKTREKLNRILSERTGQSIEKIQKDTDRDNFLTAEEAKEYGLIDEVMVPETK

Staphylococcus aureus [3] = experiment: microbe, parasite or virus in culture; assay type: functional; settings: time 18 hrs
Description: Antibacterial activity against multidrug-resistant Staphylococcus aureus clinical isolate XJ049 assessed as inhibition of visible growth of bacteria incubated for 18 hrs by absorbance based analysis

Staphylococcus aureus [4] = experiment: microbe, parasite or virus in culture; assay type: functional; settings: NRS-271, time 18 hrs
Description: Antibacterial activity against methicillin-resistant Staphylococcus aureus NRS-271 assessed as inhibition of visible growth of bacteria incubated for 18 hrs by absorbance based analysis

[5] = target: T1, ATP-dependent Clp protease proteolytic subunit; experiment: Agonist activity at Staphylococcus aureus ClpP extracted from Escherichia coli BL21 (DE3) cells using FITC-casein as substrate assessed as substrate hydrolysis preincubated for 60 mins followed by substrate addition and measured after 1 hrs by fluorescence based analysis
[6] = Agonist activity at Lactobacillus acidophilus ClpP using alpha-casein as substrate assessed as substrate hydrolysis preincubated for 15 mins followed by substrate addition and measured after 2 hrs by SDS-PAGE analysis
[7] = target: T2, ATP-dependent Clp protease proteolytic subunit, mitochondrial (Homo sapiens, UniProt Q16740); experiment: Agonist activity at human ClpP extracted from Escherichia coli Rosetta (DE3) cells using alpha-casein as substrate assessed as substrate hydrolysis preincubated for 15 mins followed by substrate addition and measured after 2 hrs by SDS-PAGE analysis
T2 sequence (Q16740 whole entry): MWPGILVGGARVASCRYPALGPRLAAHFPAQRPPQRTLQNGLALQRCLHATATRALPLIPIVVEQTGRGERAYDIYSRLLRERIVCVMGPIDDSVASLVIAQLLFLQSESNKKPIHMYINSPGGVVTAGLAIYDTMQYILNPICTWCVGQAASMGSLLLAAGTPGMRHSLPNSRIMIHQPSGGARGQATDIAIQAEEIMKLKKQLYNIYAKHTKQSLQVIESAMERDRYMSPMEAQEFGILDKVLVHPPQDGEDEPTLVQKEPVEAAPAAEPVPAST

[8] = target: T2, ATP-dependent Clp protease proteolytic subunit, mitochondrial; experiment: Induction of thermal stabilization of human ClpP extracted from Escherichia coli Rosetta (DE3) cells assessed as change in melting temperature at 10 uM incubated for 10 mins by DSF analysis
[9] = target: ATP-dependent Clp protease proteolytic subunit (Escherichia coli (strain K12), UniProt P0A6G7); experiment: Agonist activity at Escherichia coli ClpP using alpha-casein as substrate assessed as substrate hydrolysis preincubated for 15 mins followed by substrate addition and measured after 2 hrs by SDS-PAGE analysis
Chain of ATP-dependent Clp protease proteolytic subunit (Escherichia coli (strain K12), UniProt P0A6G7) (P0A6G7 whole entry): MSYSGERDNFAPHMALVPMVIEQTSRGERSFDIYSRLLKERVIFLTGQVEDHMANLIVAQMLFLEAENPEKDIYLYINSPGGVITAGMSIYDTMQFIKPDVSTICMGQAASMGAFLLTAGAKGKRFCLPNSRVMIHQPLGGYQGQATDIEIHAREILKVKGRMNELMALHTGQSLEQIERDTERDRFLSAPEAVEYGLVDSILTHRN

Staphylococcus aureus [10] = experiment: microbe, parasite or virus in culture; assay type: functional; settings: NRS-70, time 18 hrs
Description: Antibacterial activity against methicillin-resistant Staphylococcus aureus NRS-70 assessed as inhibition of visible growth of bacteria incubated for 18 hrs by absorbance based analysis

[11] = Therapeutic index, ratio of IC50 for human ARH-77 cells to MIC for Staphylococcus aureus Newman; assay type: toxicity, cell-based; settings: read-out: TI
[12] = Therapeutic index, ratio of IC50 for HEK293T/17 cells to MIC for Staphylococcus aureus Newman; assay type: toxicity, cell-based; settings: human, read-out: TI
Staphylococcus aureus [13] = experiment: microbe, parasite or virus in culture; assay type: functional; settings: time 18 hrs; remark: listed apart in the source
Description: Antibacterial activity against multidrug-resistant Staphylococcus aureus clinical isolate XJ051 assessed as inhibition of visible growth of bacteria incubated for 18 hrs by absorbance based analysis

Staphylococcus aureus [14] = experiment: microbe, parasite or virus in culture; assay type: functional; settings: NRS-1, time 18 hrs
Description: Antibacterial activity against methicillin-resistant Staphylococcus aureus NRS-1 assessed as inhibition of visible growth of bacteria incubated for 18 hrs by absorbance based analysis

Staphylococcus aureus [15] = experiment: microbe, parasite or virus in culture; assay type: functional; settings: time 18 hrs; remark: listed apart in the source
Description: Antibacterial activity against multidrug-resistant Staphylococcus aureus clinical isolate XJ052 assessed as inhibition of visible growth of bacteria incubated for 18 hrs by absorbance based analysis

Staphylococcus aureus [16] = experiment: microbe, parasite or virus in culture; assay type: functional; settings: time 18 hrs; remark: listed apart in the source
Description: Antibacterial activity against multidrug-resistant Staphylococcus aureus clinical isolate XJ009 assessed as inhibition of visible growth of bacteria incubated for 18 hrs by absorbance based analysis

Staphylococcus aureus [17] = experiment: Antibacterial activity against Staphylococcus aureus USA300 infected in Zebrafish infection model assessed as increase in zebrafish survival at 5 to 25 mg/kg pre-infected for 1 hrs followed by compound addition and measured after 5 days; assay type: functional, organism-based; settings: dose 5-25 mg/kg, time 5.0 day
Staphylococcus aureus [18] = experiment: microbe, parasite or virus in culture; assay type: functional; settings: NRS-108, time 18 hrs
Description: Antibacterial activity against methicillin-resistant Staphylococcus aureus NRS-108 assessed as inhibition of visible growth of bacteria incubated for 18 hrs by absorbance based analysis

[19] = target: T3, ATP-dependent Clp protease proteolytic subunit (Staphylococcus aureus (strain NCTC 8325)) (UniProt Q2G036); experiment: Induction of thermal stabilization of Staphylococcus aureus ClpP extracted from Escherichia coli BL21 (DE3) cells assessed as change in melting temperature at 10 uM incubated for 10 mins by DSF analysis
T3 sequence (whole entry): T1 sequence (Q2G036 whole entry)

Staphylococcus aureus [20] = experiment: microbe, parasite or virus in culture; assay type: functional; settings: Newman, time 18 hrs
Description: Antibacterial activity against Staphylococcus aureus Newman assessed as inhibition of visible growth of bacteria incubated for 18 hrs by absorbance based analysis

Staphylococcus aureus [21] = experiment: microbe, parasite or virus in culture; assay type: functional; settings: USA300, time 18 hrs
Description: Antibacterial activity against methicillin-resistant Staphylococcus aureus USA300 assessed as inhibition of visible growth of bacteria incubated for 18 hrs by absorbance based analysis

Staphylococcus aureus [22] = experiment: microbe, parasite or virus in culture; assay type: functional; settings: time 18 hrs; remark: listed apart in the source
Description: Antibacterial activity against multidrug-resistant Staphylococcus aureus clinical isolate XJ025 assessed as inhibition of visible growth of bacteria incubated for 18 hrs by absorbance based analysis

Staphylococcus aureus [23] = experiment: Antibacterial activity against oxacillin-resistant Staphylococcus aureus clinical isolate XJ049 infected in female ICR mouse peritonitis model assessed as mouse survival at 50 mg/kg, ip pre-infected for 1 hrs followed by compound addition and measured after 5 days relative to control; assay type: functional; settings: 120 h, time 5 day
[24] = Octanol/water partition coefficient, log P of the compound at pH 7.4 incubated for 24 hrs by LC-MS analysis; assay type: physicochemical
[25] = Cytotoxicity against HEK293T/17 cells by MTT assay; assay type: toxicity, cell-based; settings: human
Staphylococcus aureus [26] = experiment: Antibacterial activity against methicillin resistant Staphylococcus aureus NRS 119 by CLSI protocol based broth microdilution method; assay type: functional
[27] = Therapeutic index, ratio of IC50 for HEK293T/17 cells to MIC for methicillin resistant Staphylococcus aureus NRS 119; assay type: toxicity, cell-based; settings: human, read-out: TI

SMILES	selectivity ratio [1]	EC50 [2] [nM]	MIC (Staphylococcus aureus [3]) [µg/mL]	MIC (Staphylococcus aureus [4]) [µg/mL]	EC50 [5] [nM]	EC50 [6] [nM]	EC50 [7] [nM]	ΔTm [8] [°C]	EC50 [9] [nM]	MIC (Staphylococcus aureus [10]) [µg/mL]	selectivity ratio [11]	selectivity ratio [12]	MIC (Staphylococcus aureus [13]) [µg/mL]	MIC (Staphylococcus aureus [14]) [µg/mL]	MIC (Staphylococcus aureus [15]) [µg/mL]	MIC (Staphylococcus aureus [16]) [µg/mL]	MIC (Staphylococcus aureus [18]) [µg/mL]	MIC (Staphylococcus aureus [20]) [µg/mL]	MIC (Staphylococcus aureus [21]) [µg/mL]	MIC (Staphylococcus aureus [22]) [µg/mL]	other results
CC[C@H](C)[C@H]1C(=O)N([C@H](C)c2cccc3ccccc23)C[C@@H]2N(C(=O)NCCCC(F)(F)F)CCC(=O)N12	29	1200	2 (≈ 3.76 µM)	1 (≈ 1.88 µM)	720	> 100000	31400	3	> 100000	1 (≈ 1.88 µM)	27	25	1 (≈ 1.88 µM)	2 (≈ 3.76 µM)	2 (≈ 3.76 µM)	2 (≈ 3.76 µM)	1 (≈ 1.88 µM)	2 (≈ 3.76 µM)	1 (≈ 1.88 µM)	2 (≈ 3.76 µM)	Activity (Staphylococcus aureus [17]): Active; ΔTm [19]: 13 °C
Cc1onc(-c2ccccc2)c1C(=O)N[C@@H]1C(=O)N2[C@@H]1SC(C)(C)[C@@H]2C(=O)O [OXACILLIN]			> 128	32 (≈ 79.7 µM)						0.25 (≈ 0.623 µM)			> 128	64 (≈ 159 µM)	> 128	> 128	0.25 (≈ 0.623 µM)	0.13 (≈ 0.324 µM)	0.25 (≈ 0.623 µM)	32 (≈ 79.7 µM)	survival at 50 mg/kg (Staphylococcus aureus [23]): 56%
O=C1[C@H](Cc2cnc[nH]2)N2C(=O)CCN(C(=O)NCc3ccccc3)[C@H]2CN1Cc1cccc2ccccc12		500																> 128			logD at 24 h [24]: 3.09
C[C@@H]1C[C@H]2C(=O)OC[C@H](NC(=O)[C@H](Cc3cc(F)cc(F)c3)NC(=O)CCC3CCCCC3)C(=O)N3CCC[C@H]3C(=O)N3CCCC[C@H]3C(=O)N[C@@H](C)C(=O)N2C1																					IC50 [25]: 3.7 µg/mL (≈ 4.63 µM); MIC (Staphylococcus aureus [26]): 0.4 µg/mL (≈ 0.501 µM); selectivity ratio [27]: 9.3
O=C1C2=C(CCN(Cc3ccccc3)C2)N2CCN=C2N1Cc1ccc(C(F)(F)F)cc1	0.06	1200	0.5 (≈ 1.14 µM)	0.25 (≈ 0.568 µM)	720	1140	1900	23.5	3970	0.5 (≈ 1.14 µM)	0.1	0.04	0.5 (≈ 1.14 µM)	1 (≈ 2.27 µM)	1 (≈ 2.27 µM)	0.5 (≈ 1.14 µM)	0.5 (≈ 1.14 µM)	0.002 (≈ 0.00454 µM)	0.5 (≈ 1.14 µM)	0.5 (≈ 1.14 µM)	IC50 [25]: 0.002 µg/mL (≈ 0.00454 µM); ΔTm [19]: 15.9 °C
